Where a chain is given by its changes, count along the chain named.
How the values were obtained:
zebrafish Tgds [1] = biological target: T1, zebrafish Tgds (Danio rerio, UniProt A0AC58JQE1); assay: anion exchange HPLC; type: biochemical; conditions: PBS pH 7.3, 30 °C
T1 construct: full coding region (347 residues) from ovary cDNA, pET-28a NdeI/XhoI, N-terminal 6xHis tag (cutting not mentioned), E. coli BL21 DE
T1 sequence (A0AC58JQE1 1-347): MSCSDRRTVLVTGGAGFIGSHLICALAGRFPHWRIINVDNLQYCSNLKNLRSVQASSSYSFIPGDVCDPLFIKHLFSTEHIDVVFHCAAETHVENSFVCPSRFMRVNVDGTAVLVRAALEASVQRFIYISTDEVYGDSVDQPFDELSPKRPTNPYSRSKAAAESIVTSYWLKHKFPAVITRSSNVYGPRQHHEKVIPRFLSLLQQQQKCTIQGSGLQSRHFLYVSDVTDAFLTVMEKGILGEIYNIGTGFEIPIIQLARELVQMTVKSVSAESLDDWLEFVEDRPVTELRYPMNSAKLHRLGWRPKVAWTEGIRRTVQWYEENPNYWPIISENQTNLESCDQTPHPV

zebrafish Tgds [2] = biological target: T2, zebrafish Tgds (Danio rerio, UniProt A0AC58JQE1, E79G); assay: cycling assay of NAD+ tightly bound to the purified protein; type: binding; conditions: co-purified, tightly bound cofactor; protein from calculated extinction coefficient at 280 nm
T2 construct: full coding region (347 residues) from ovary cDNA, pET-28a NdeI/XhoI, N-terminal 6xHis tag (cutting not mentioned), E. coli BL21 DE
T2 sequence (A0AC58JQE1 1-347 E79G): T1 sequence (A0AC58JQE1 1-347) with E79G
Text: (§1) cycling assay of NAD+ tightly bound to the purified protein on zebrafish Tgds

zebrafish Tgds [3] = biological target: T3, zebrafish Tgds (Danio rerio, UniProt A0AC58JQE1, A89S); assay: as above; type: binding; conditions: co-purified, tightly bound cofactor; protein from calculated extinction coefficient at 280 nm
T3 construct: full coding region (347 residues) from ovary cDNA, pET-28a NdeI/XhoI, N-terminal 6xHis tag (cutting not mentioned), E. coli BL21 DE
T3 sequence (A0AC58JQE1 1-347 A89S): T1 sequence (A0AC58JQE1 1-347) with A89S
Text: as §1

zebrafish Tgds [4] = biological target: T4, zebrafish Tgds (Danio rerio, UniProt A0AC58JQE1, Y223H); assay: as above; type: binding; conditions: co-purified, tightly bound cofactor; protein from calculated extinction coefficient at 280 nm
T4 construct: full coding region (347 residues) from ovary cDNA, pET-28a NdeI/XhoI, N-terminal 6xHis tag (cutting not mentioned), E. coli BL21 DE
T4 sequence (A0AC58JQE1 1-347 Y223H): T1 sequence (A0AC58JQE1 1-347) with Y223H
Text: as §1

zebrafish Tgds [5] = biological target: T1, zebrafish Tgds; assay: as above; type: binding; conditions: co-purified, tightly bound cofactor; protein from calculated extinction coefficient at 280 nm
Text: as §1

Row | NAD^+/protein molar ratio ^d (zebrafish Tgds [2]) [mol/mol] | NAD^+/protein molar ratio ^d (zebrafish Tgds [3]) [mol/mol] | NAD^+/protein molar ratio ^d (zebrafish Tgds [4]) [mol/mol] | NAD^+/protein molar ratio ^d (zebrafish Tgds [5]) [mol/mol] | SMILES | anion exchange HPLC (zebrafish Tgds [1])
1 |  |  |  |  | Cc1cn([C@H]2C[C@H](O)[C@@H](COP(=O)(O)OP(=O)(O)O[C@H]3O[C@H](CO)[C@@H](O)[C@H](O)[C@H]3O)O2)c(=O)[nH]c1=O [TDP‐D‐glucose] | The enzyme exhibited lower activity with TDP‐D‐glucose
2 | 0.16 | 0.39 | 0.04 | 0.55 | NC(=O)c1ccc[n+]([C@@H]2O[C@H](COP(=O)(O)OP(=O)(O)OC[C@H]3O[C@@H](n4cnc5c(N)ncnc54)[C@H](O)[C@@H]3O)[C@@H](O)[C@H]2O)c1 [NAD^+] | 

Reference: publication PMC13080230, “Zebrafish as a model for Catel–Manzke syndrome—identification and characterization of the zebrafish TGDS ortholog” (The Febs Journal, 2025)
